Experimental data taken from article PMC9268168, “Novel Nitric Oxide Donor Dinitroazetidine-Coumarin Hybrids as Potent Anti-Intrahepatic Cholangiocarcinoma Agents” (Molecules, 2022).

Tests used:
RBE cells = test: Intracellular NO measurement with fluorescent probe DAF-FM DA (flow cytometry); type: cell-based, human; settings: 2 μM, 2.5 h; for MFI (fold of RRx-001), intracellular NO: DAF-FM DA
Procedure: Intracellular NO was measured with 3-amino,4-aminomethyl-2′,7′-diflfluorescein, diacetate (DAF-FM DA, Beyotime, Shanghai, China). In detail, RBE cells in the logarithmic growth phase were collected and spread on 6-well plate at a density of 150,000 per well overnight. The adherent cells were pretreated with 5 μM DAF-FM DA at 37 °C for 20 min and then incubated with RRx-001, compounds 2–6 and 21 for 2.5 h, followed by flow cytometer analysis (BD Accuri C6, Shanghai, China). Cells were washed three times with cold PBS between each step. The experiment was performed three times.

RBE cell lines [1] = test: cells; settings: Homo sapiens, 48 h, read-out: IC50, antiproliferation activities in RBE
Procedure: Tested compounds were dissolved into DMSO (Sigma-Aldrich, Shanghai, China) to prepare a solution with concentration of 2 mM for use.
The in vitro antiproliferation of the chemical compounds was measured by the MTT reagent, as described in the literature. Briefly, 4000–6000 cells in 100 μL of medium per well were plated in 96-well plates. […] At the same time, blank group without adding cells was set. […] Last, the MTT-containing medium was discarded and 150 μL of DMSO per well was added to dissolve the formazan crystals newly formed. Absorbance of each well was determined by a microplate reader (Synergy H4, Bio-Tek) at a 570 nm wavelength. The inhibition rates of proliferation were calculated with the following equation:Inhibition ratio (%) = (ODDMSO−ODcompd)/(ODDMSO−ODblank) × 100

[2] = test system: Cyclin B1, PARP and Caspase-3 in RBE cell lines; test: Western blot analysis of cell-cycle- and apoptosis-related proteins; type: cell-based, human; settings: 1 and 4 μM
Procedure: Approximately 2 × 10^5 cells of RBE were seeded in 6-well plates. After treated with compound 3 (1 and 4 μM) for 24 h, cells were lysed with ice-cold RIPA lysis buffer (Beyotime, Shanghai, China) for 30 min and then centrifuged at 12,000 rpm for 10 min at 4 °C. The total protein concentration was determined by BCA protein assay kit (Beyotime, Shanghai, China). Equal amounts (20 μg per load) of protein samples were subjected to 12% SDS-PAGE gel and transferred onto polyvinylidene fluoride (PVDF) membranes (Epizyme Biotech, Shanghai, China), which were then blocked with 5% bovine serum albumin (Ebsdorfelgrund, Hesse, Germany) for 1.5 h and reacted with primary antibodies (1: 1000 diluted) at 4 °C overnight. Subsequently, the PVDF membranes were incubated in the secondary antibody (1: 10,000 diluted) for 2 h at room temperature. ECL chemiluminescent solution was used for color rendering. The antibodies against Cyclin B1, Caspase 3, and PARP were purchased from Cell Signaling Technology. The secondary antibodies conjugated with horseradish peroxidase (HRP) were from AoWei Biology and CST. The protein bands were developed by the chemiluminescent reagents (Meilunbio, Shanghai, China).

RBE cell lines [3] = test: Cell cycle analysis (PI staining, flow cytometry); type: cell-based, human; settings: 1 μM
Procedure: The experimental cells RBE were cultured and collected when the cells were in good growth state. After digesting with 0.25% trypsin (Beyotime), the cells were collected and centrifuged. The cells were inoculated in petri dishes (Φ = 6 cm) with an inoculation density of 500,000 cells per dish and 3 mL medium per dish. The cells were placed in the incubator, changed to serum-free RPMI 1640 medium after 12 h, left to continue to culture for 12 h, and then compounds were added. Compounds groups with the concentration of 1 μM and control group treated with DMSO were set. The original culture medium was removed, and the compounds were added. After incubation for 16h, the cells were collected and centrifuged at 1000 r for 5 min. The cells were rinsed twice with PBS, and the supernatant was removed by centrifugation. 75% ethanol (1 mL) was added and placed in a refrigerator at −20 °C overnight for cell fixation.
The fixed cells were centrifuged at 2000 r for 5 min, the supernatant was discarded, 1 mL of PBS solution was added, and the supernatant was resuspended and discarded. 0.5 mL of PI staining solution was added to each tube (staining buffer: 20 × PI staining solution: 50 × RNase A = 100:5:2) and stored at room temperature for 30 min in the dark for testing on the flow cytometry.

| SMILES | melting point [°C] | MFI (fold of RRx-001), intracellular NO (RBE cells) | IC50 (RBE cell lines [1]) [nM] | also measured |
| --- | --- | --- | --- | --- |
| Cc1c(Cc2ccc(C#N)cc2)c(=O)oc2cc(OCCN3CC([N+](=O)[O-])([N+](=O)[O-])C3)ccc12 | 122.5 to 124.1 | – | – | – |
| Cc1c(Cc2ccc(C#N)cc2)c(=O)oc2cc(OCCCCN3CC([N+](=O)[O-])([N+](=O)[O-])C3)ccc12 | 135.1 to 136.3 | – | – | – |
| Cc1c(Cc2ccc(F)cc2)c(=O)oc2cc(OCCN3CC([N+](=O)[O-])([N+](=O)[O-])C3)ccc12 | 137.9 to 139.2 | – | – | – |
| Cc1c(Cc2ccc(F)cc2)c(=O)oc2cc(OCCCCN3CC([N+](=O)[O-])([N+](=O)[O-])C3)ccc12 | 113.3 to 115.1 | – | – | – |
| Cc1c(Cc2ccccc2)c(=O)oc2cc(OCCN3CC([N+](=O)[O-])([N+](=O)[O-])C3)ccc12 | 173 to 175 | – | – | – |
| Cc1c(Cc2ccccc2)c(=O)oc2cc(OCCCN3CC([N+](=O)[O-])([N+](=O)[O-])C3)ccc12 | 115.1 to 116.8 | – | – | – |
| Cc1cc(=O)oc2cc(OCCN3CC([N+](=O)[O-])([N+](=O)[O-])C3)ccc12 | 91 to 93 | – | – | – |
| Cc1cc(=O)oc2cc(OCCCN3CC([N+](=O)[O-])([N+](=O)[O-])C3)ccc12 | 78.5 to 79.6 | – | – | – |
| Cc1cc(=O)oc2cc(OCCOCC(=O)N3CC([N+](=O)[O-])([N+](=O)[O-])C3)ccc12 | 82.5 to 84.5 | – | – | – |
| Cc1c(Cc2ccc(C(F)(F)F)cc2)c(=O)oc2cc(OCCN3CC([N+](=O)[O-])([N+](=O)[O-])C3)ccc12 | 98 to 99.8 | – | – | – |
| Cc1c(Cc2ccc(C(F)(F)F)cc2)c(=O)oc2cc(OCCOCC(=O)N3CC([N+](=O)[O-])([N+](=O)[O-])C3)ccc12 [Compound 2, 7-(2-(2-(3,3-Dinitroazetidin-1-yl)-2-oxoethoxy)ethoxy)-4-methyl-3-(4-(trifluoromethyl)benzyl)-2H-chromen-2-one] | 65.3 to 67 | 0.95 fold of RRx-001 | 1110 | – |
| Cc1c(Cc2ccc(C#N)cc2)c(=O)oc2cc(OCCOCC(=O)N3CC([N+](=O)[O-])([N+](=O)[O-])C3)ccc12 [Compound 3, 4-((7-(2-(2-(3,3-Dinitroazetidin-1-yl)-2-oxoethoxy)ethoxy)-4-methyl-2-oxo-2H-chromen-3-yl)methyl)benzonitrile] | 74.9 to 76.3 | 1.36 fold of RRx-001 | 950 | expression of PARP, Caspase-3 and Cyclin B1 (Western blotting) [2]: downregulated; cell cycle effect (in words) (RBE cell lines [3]): arrest the cell cycle at G2/M phase; mean percentage of cells in the G2/M phase (RBE cell lines [3]; DMSO control 18%): 23%; NO release level in RBE cells (in words) (RBE cells; compared to RRx-001): highest NO release concentration |
| Cc1c(Cc2ccc(F)cc2)c(=O)oc2cc(OCCOCC(=O)N3CC([N+](=O)[O-])([N+](=O)[O-])C3)ccc12 [Compound 4, 7-(2-(2-(3,3-Dinitroazetidin-1-yl)-2-oxoethoxy)ethoxy)-3-(4-fluorobenzyl)-4-methyl-2H-chromen-2-one] | 70 to 71.9 | 0.86 fold of RRx-001 | 890 | – |
| Cc1c(Cc2ccccc2)c(=O)oc2cc(OCCOCC(=O)N3CC([N+](=O)[O-])([N+](=O)[O-])C3)ccc12 [Compound 5, 3-Benzyl-7-(2-(2-(3,3-dinitroazetidin-1-yl)-2-oxoethoxy)ethoxy)-4-methyl-2H-chromen-2-one] | 82.5 to 84.5 | 0.83 fold of RRx-001 | 710 | – |
| Cc1cc(=O)oc2cc(OCCCCN3CC([N+](=O)[O-])([N+](=O)[O-])C3)ccc12 [Compound 21, 7-(4-(3,3-Dinitroazetidin-1-yl)butoxy)-4-methyl-2H-chromen-2-one] | 85.8 to 87.2 | 1.13 fold of RRx-001 | 1090 | – |
| O=C(CBr)N1CC([N+](=O)[O-])([N+](=O)[O-])C1 [RRx-001, reference compound] | – | 1 fold of RRx-001 | 2000 | – |
